Test results taken from patent US6737383B1, “Herbicidal oxadiazolidines” (priority 1999, dated 2004).

Legend:
bedstraw = assay: Test B pre/postemergence bedstraw; assay type: in vivo, Galium aparine
Procedure, shortened: (§1)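 Herbicidal effect was estimated by eye on a ten-point control scale after plants spent twelve to sixteen days in a greenhouse following soil or foliar treatment. Foliar sprays targeted plants at one to four leaves; all doses were formulated in a non-phytotoxic solvent with surfactant.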

blackgrass = assay: Test B pre/postemergence blackgrass; assay type: in vivo, Alopecurus myosuroides
Procedure, shortened: as §1

surinam grass = assay: Test B pre/postemergence surinam grass; assay type: in vivo, Brachiaria decumbens
Procedure, shortened: as §1

cocklebur = assay: Test B pre/postemergence cocklebur; assay type: in vivo, Xanthium strumarium
Procedure, shortened: as §1

corn = assay: Test B pre/postemergence corn; assay type: in vivo, Zea mays
Procedure, shortened: as §1

crabgrass = assay: Test B pre/postemergence crabgrass; assay type: in vivo, Digitaria sanguinalis
Procedure, shortened: as §1

giant foxtail = assay: Test B pre/postemergence giant foxtail; assay type: in vivo, Setaria faberii
Procedure, shortened: as §1

morningglory = assay: Test B pre/postemergence morningglory; assay type: in vivo, Ipomoea hederacea
Procedure, shortened: as §1

pigweed = assay: Test B pre/postemergence pigweed; assay type: in vivo, Amaranthus retroflexus
Procedure, shortened: as §1

rape = assay: Test B pre/postemergence rape; assay type: in vivo, Brassica napus
Procedure, shortened: as §1

soybean = assay: Test B pre/postemergence soybean; assay type: in vivo, Glycine max
Procedure, shortened: as §1

sugar beet = assay: Test B pre/postemergence sugar beet; assay type: in vivo, Beta vulgaris
Procedure, shortened: as §1

velvetleaf = assay: Test B pre/postemergence velvetleaf; assay type: in vivo, Abutilon theophrasti
Procedure, shortened: as §1

wheat = assay: Test B pre/postemergence wheat; assay type: in vivo, Triticum aestivum
Procedure, shortened: as §1

wild oat = assay: Test B pre/postemergence wild oat; assay type: in vivo, Avena fatua
Procedure, shortened: as §1

purple nutsedge = assay: Test B pre/postemergence purple nutsedge; assay type: in vivo, Cyperus rotundus; conditions: for Plant response rating, Nutsedge: scale of 0 to 10 where 0 is no effect and 10 is complete control
Procedure, shortened: as §1

[1] = Postemergence, Rate 62 g/ha, scale of 0 to 10, 0 is no effect, 10 is complete control
[2] = Postemergence, Rate 500 g/ha, scale of 0 to 10 where 0 is no effect and 10 is complete control
[3] = Preemergence, Rate 62 g/ha, scale 0 to 10 (0 no effect, 10 complete control)
[4] = Preemergence, Rate 125 g/ha, scale 0 to 10, 0 is no effect, 10 is complete control
[5] = Preemergence, Rate 500 g/ha, scale of 0 to 10 where 0 is no effect and 10 is complete control
[6] = Postemergence, Rate 125 g/ha, scale 0 to 10, 0 is no effect, 10 is complete control
[7] = Rate 250 g/ha, Postemergence, scale of 0 to 10 where 0 is no effect and 10 is complete control

SMILES: COCCOCn1c(=O)on(C(=O)N(c2ccccc2)C(C)C)c1=O [Compound 564]
- Bedstraw plant response rating (bedstraw; [1]): 0
- Plant response rating, Bedstraw (bedstraw; [2]): 0
- Bedstraw plant response rating (bedstraw; [3]): 0
- Bedstraw plant response rating (bedstraw; [4]): 0
- Bedstraw plant response rating (0 to 10 scale) (bedstraw; Preemergence, Rate 250 g/ha): 0
- Bedstraw plant response rating (bedstraw; [5]): 0
- Blackgrass plant response rating (blackgrass; [1]): 0
- Blackgrass plant response rating (blackgrass; [6]): 4
- Plant response rating, Blackgrass (blackgrass; [2]): 4
- Blackgrass plant response rating (blackgrass; [3]): 0
- Blackgrass plant response rating (blackgrass; [4]): 5
- Blackgrass plant response rating (0 to 10 scale) (blackgrass; Preemergence, Rate 250 g/ha): 5
- Blackgrass plant response rating (blackgrass; [5]): 9
- Plant response rating, Blackgrass (blackgrass; [7]): 4
- B. signalgrass plant response rating (surinam grass; [1]): 0
- Plant response rating, B. signalgrass (surinam grass; [2]): 8
- B. signalgrass plant response rating (surinam grass; [3]): 2
- B. signalgrass plant response rating (surinam grass; [4]): 6
- B. signalgrass plant response rating (0 to 10 scale, 0 is no effect, 10 is complete control) (surinam grass; Preemergence, Rate 250 g/ha): 6
- B. signalgrass plant response rating (surinam grass; [5]): 7
- Plant response rating, B. signalgrass (surinam grass; [7]): 3
- Cocklebur plant response rating (cocklebur; [1]): 0
- Cocklebur plant response rating (cocklebur; [6]): 0
- Plant response rating, Cocklebur (cocklebur; [2]): 2
- Cocklebur plant response rating (cocklebur; [3]): 0
- Cocklebur plant response rating (cocklebur; [4]): 0
- Cocklebur plant response rating (0 to 10 scale) (cocklebur; Preemergence, Rate 250 g/ha): 0
- Cocklebur plant response rating (cocklebur; [5]): 0
- Plant response rating, Cocklebur (cocklebur; [7]): 0
- Corn plant response rating (corn; [1]): 0
- Corn plant response rating (corn; [6]): 0
- Plant response rating, Corn (corn; [2]): 6
- Corn plant response rating (corn; [3]): 2
- Corn plant response rating (corn; [4]): 4
- Corn plant response rating (0 to 10 scale) (corn; Preemergence, Rate 250 g/ha): 4
- Corn plant response rating (corn; [5]): 9
- Plant response rating, Corn (corn; [7]): 0
- Crabgrass plant response rating (crabgrass; [1]): 2
- Crabgrass plant response rating (crabgrass; [6]): 3
- Plant response rating, Crabgrass (crabgrass; [2]): 9
- Crabgrass plant response rating (crabgrass; [3]): 7
- Crabgrass plant response rating (crabgrass; [4]): 8
- Crabgrass plant response rating (0 to 10 scale) (crabgrass; Preemergence, Rate 250 g/ha): 9
- Crabgrass plant response rating (crabgrass; [5]): 9
- Plant response rating, Crabgrass (crabgrass; [7]): 8
- Giant foxtail plant response rating (giant foxtail; [1]): 2
- Giant foxtail plant response rating (giant foxtail; [6]): 3
- Plant response rating, Giant foxtail (giant foxtail; [2]): 9
- Giant foxtail plant response rating (giant foxtail; [3]): 9
- Giant foxtail plant response rating (giant foxtail; [4]): 9
- Giant foxtail plant response rating (0 to 10 scale) (giant foxtail; Preemergence, Rate 250 g/ha): 9
- Giant foxtail plant response rating (giant foxtail; [5]): 9
- Plant response rating, Giant foxtail (giant foxtail; [7]): 7
- Morningglory plant response rating (morningglory; [1]): 5
- Morningglory plant response rating (morningglory; [6]): 7
- Plant response rating, Morningglory (morningglory; [2]): 10
- Morningglory plant response rating (morningglory; [3]): 0
- Morningglory plant response rating (morningglory; [4]): 2
- Morningglory plant response rating (0 to 10 scale) (morningglory; Preemergence, Rate 250 g/ha): 2
- Morningglory plant response rating (morningglory; [5]): 4
- Plant response rating, Morningglory (morningglory; [7]): 10
- Redroot pigweed plant response rating (pigweed; [1]): 3
- Plant response rating, Redroot pigweed (pigweed; [2]): 3
- Redroot pigweed plant response rating (pigweed; [3]): 0
- Redroot pigweed plant response rating (pigweed; [4]): 0
- Redroot pigweed plant response rating (0 to 10 scale) (pigweed; Preemergence, Rate 250 g/ha): 3
- Redroot pigweed plant response rating (pigweed; [5]): 3
- Plant response rating, Redroot pigweed (pigweed; [7]): 3
- Rape plant response rating (rape; [1]): 0
- Rape plant response rating (rape; [6]): 0
- Plant response rating, Rape (rape; [2]): 2
- Rape plant response rating (rape; [3]): 0
- Rape plant response rating (rape; [4]): 0
- Rape plant response rating (0 to 10 scale) (rape; Preemergence, Rate 250 g/ha): 0
- Rape plant response rating (rape; [5]): 3
- Plant response rating, Rape (rape; [7]): 2
- Soybean plant response rating (soybean; [1]): 0
- Plant response rating, Soybean (soybean; [2]): 5
- Soybean plant response rating (soybean; [3]): 0
- Soybean plant response rating (soybean; [4]): 0
- Soybean plant response rating (0 to 10 scale) (soybean; Preemergence, Rate 250 g/ha): 4
- Soybean plant response rating (soybean; [5]): 8
- Plant response rating, Soybean (soybean; [7]): 5
- Sugarbeets plant response rating (sugar beet; [1]): 0
- Plant response rating, Sugarbeets (sugar beet; [2]): 2
- Sugarbeets plant response rating (sugar beet; [3]): 2
- Sugarbeets plant response rating (sugar beet; [4]): 2
- Sugarbeets plant response rating (0 to 10 scale) (sugar beet; Preemergence, Rate 250 g/ha): 3
- Sugarbeets plant response rating (sugar beet; [5]): 3
- Plant response rating, Sugarbeets (sugar beet; [7]): 2
- Velvetleaf plant response rating (velvetleaf; [1]): 0
- Plant response rating, Velvetleaf (velvetleaf; [2]): 3
- Velvetleaf plant response rating (velvetleaf; [3]): 0
- Velvetleaf plant response rating (velvetleaf; [4]): 2
- Velvetleaf plant response rating (0 to 10 scale) (velvetleaf; Preemergence, Rate 250 g/ha): 6
- Velvetleaf plant response rating (velvetleaf; [5]): 8
- Plant response rating, Velvetleaf (velvetleaf; [7]): 2
- Wheat plant response rating (wheat; [1]): 0
- Plant response rating, Wheat (wheat; [2]): 2
- Wheat plant response rating (wheat; [3]): 0
- Wheat plant response rating (wheat; [4]): 6
- Wheat plant response rating (0 to 10 scale) (wheat; Preemergence, Rate 250 g/ha): 7
- Wheat plant response rating (wheat; [5]): 7
- Wild oats plant response rating (wild oat; [1]): 0
- Plant response rating, Wild oats (wild oat; [2]): 2
- Wild oats plant response rating (wild oat; [3]): 0
- Wild oats plant response rating (wild oat; [4]): 0
- Wild oats plant response rating (0 to 10 scale) (wild oat; Preemergence, Rate 250 g/ha): 4
- Wild oats plant response rating (wild oat; [5]): 7
- Nutsedge plant response rating (purple nutsedge; [1]): 0
- Plant response rating, Nutsedge (purple nutsedge; Postemergence, Rate 500 g/ha): 0
- Nutsedge plant response rating (purple nutsedge; [3]): 0
- Nutsedge plant response rating (purple nutsedge; [4]): 0
- Plant response rating, Nutsedge (purple nutsedge; Rate 250 g/ha, Postemergence): 0
